According to US11360104B2, “Microbial-based biosensors” (TRUSTEES OF BOSTON UNIVERSITY, priority 2017, dated 2022):
Like-named read-outs stand apart in the source and are kept apart here. Blank lines part the entries; values can stand above or below the molecule they belong to. {Cy5} = Cy5 fluorescent dye attached at the strand end

What was measured:
[1] = system: Pimelobacter simplex PinR (AIY20223.2; SEQ ID NO: 1), his-tagged (AIY-his6); assay: QD-FRET steroid sensor (QD-PinR + DNA-Cy5), steroid-induced TF-DNA unbinding; type: biochemical; details: sensor 3 in HEPES 1×; 0 to 10 uM steroid
Procedure: (§1) Fluorescent spectra were analyzed using MATLAB (Mathworks) and were fitted with a sum of 2 Gaussians (D=QD: FWHM=27 nm, λmax=607 nm; A=DNA-Cy5: FWHM=40 nm, λmax=669 nm). The area of each Gaussian was extracted and FD and FA are obtained respectively for the fluorescence of QD (donor) and Cy5 (acceptor).
Raw dose-response curves were obtained by plotting FA/FD as a function of the steroid concentration. Sensor output is the normalization of the fluorescent spectra of the donor and acceptor according to the following equation: […]
Non-normalized dose-response were fitted with Origin Pro 8 software with the non-linear equation: […]
The cross-reactivity of progesterone regarding the different steroids was calculated with the following equation: […]
CdSe/CdS/ZnS QDs were coated with a zwitterionic polymer bearing histamine anchoring functions (P1, SI). Once the hydrophobic QDs were transferred into H2O using a biphasic ligand exchange, his-tagged TFs were self-assembled on the QD surface to produce the QD-TF. Addition of the double stranded, Cy5-labeled TF-binding sequence completed probe assembly as the oligo binds to the TF in the absence of progesterone (PRG). The molar ratios of the QD, TF, and DNA in the sensor were controlled through the stoichiometric ratios of the mixed parts.
Two fluorescent spectra were recorded, one from the QDs and one from the Cy5 due to the FRET.
First, the DNA1 (most binding sequence) has been used to build the first biosensor, named sensor 1. For this sensor, a ratio of QD/TF/DNA of 1/4/18 was chosen. […] In order to homogenize the fluorescent signals in between batches and different sensor variations, FA/FD was normalized to give the signal output. Signal output is then plotted against PRG concentration to give a dose-response curve (FIG. 9C) This curve was fitted with the non-linear equation XX to obtain the half-maximal inhibitory concentration (IC50) (Table 13).
(§2) Description for a typical experiment, using a molar ratio of QD/TF/DNA=1/4/18. QDs in (275 uL, 0.15 uM in HEPES 1×, pH 7.6 with 1% BSA) were mixed with AIY-his6 (275 uL, 0.6 uM in HEPES 1× pH 7.6) at room temperature for 45 min. Then, the double-stranded DNA labelled with a Cy5 fluorescent probe at the 3′ and 5′ ends (275 uL, 2.7 uM in HEPES 1× pH 7.6) was added to the mixture. After 30 min, 220 uL of HEPES 1× pH 7.5 and 330 uL of 5× binding buffer (25 mM MgCl2, 25% glycerol, and 250 mg/L Invitrogen™ UltraPure™ Salmon Sperm DNA in Tris-HCl 0.1M) were added and the mixture is left 15 more min at RT.
(§3) 50 uL of the sensor (QD/TF/DNA) was then splitted in 3×9 centrifuge tubes to which 10 uL of progesterone at the desired concentration is added. As such, the final concentration of QD/TF/DNA for the measurements is 25 nM/100 nM/450 nM. A 384 well plate was filled with 60 uL of each solution. The fluorescence intensity was monitored on a spectrofluorimeter from 535 nm to 800 nm exciting at 400 nm, equipped with a 450 nm long-pass filter in emission.

[2] = molecular target: PinR (Nocardioides simplex (Pimelobacter simplex), UniProt A0A0A1DUF2); assay: Cross-reactivity assay of steroids using sensor 3; type: biochemical; details: sensor 3, HEPES 1×, 0 to 10 uM of steroids
Procedure: The cross-reactivity of progesterone regarding the different steroids was calculated with the following equation:
Description for a typical experiment, using a molar ratio of QD/TF/DNA=1/4/18.
as §3, with “As such, the final concentration of QD/TF/DNA for the measurements is 25 nM/100 nM/450 nM.” left out

[3] = system: Pimelobacter simplex; assay: Solvent and steroid exposure growth curves
Text: In order to identify steroid binding Transcription Factors, a whole transcriptome RNA sequencing (RNA-Seq) screen was developed (FIG. 7). The growth of Pimelobacter simplex bacteria was profiled with respect to the starting inoculation density, solvent toxicity, and the addition of steroids (FIG. 16). […] P. simplex bacteria were screened against the steroid solvents ethanol (EtOH) and dimethyl sulfoxide (DMSO). […] Steroid growth curves were similarly performed using a starting OD of 0.005 and constant solvent dosing with titrations of steroids. […] P. simplex bacteria were grown in the presence of 700 μM testosterone, 21.88 μM progesterone, 87.50 μM estrone, 21.88 μM 17β-estradiol, 21.88 μM hydrocortisone, or 175.00 μM aldosterone concentrations were selected for comparison.
In order to properly determine the doubling time of the strain, growth curves were performed. All growth curves were done in 100 μL per well volumes in 96 well flat clear bottom black polystyrene TC-treated microplates which were individually wrapped with a lid and sterile (Corning #3603). Measurements were done by an Infinite M200 Pro (TECAN) spectrophotometer at the temperature suited for P. simplex. Readings were performed over 96 cycles of 15 minutes each at 600 nm absorbance with 25 flashes in a 3×3 (XY-Line) type reads per well. In between reads there was orbital shaking at 150 rpm frequency for a total of 10 minutes. In order to characterize the growth alone, a ½ serial dilution of 9 concentrations from 0.5-0.0020 OD600 nm were prepared in the respective media. Then each concentration was measured as previously described using a microplate reader (TECAN) and normalized against a media background control in technical triplicate. Afterward, an appropriate starting concentration of cells was chosen with a substantially long lag-phase, linear log phase, and a plateau of stationary-phase.
Once an appropriate starting cell concentration was chosen, a secondary growth curve was performed to test the toxicity levels of the solvents used to dissolve steroids of interest. Since the steroids used are heavily hydrophobic, they often need to be dissolved in organic solvents such as DMSO or ethanol which are toxic to bacteria at high concentrations. P. simplex was incubated under microplate reader conditions previously mentioned at a starting OD determined by the first growth curve with DMSO, ethanol, or H2O at ½ serial dilutions for a total of eight concentrations (50-0.39%) tested in technical triplicate. Two controls were included per solvent; a positive control without solvent and a media control which allowed for appropriate normalization. Solvent exposure growth curves allowed for choosing the maximum amount of solvent concentration that strains would sustain while maintaining relative viability in order to determine a range of steroid concentrations which could be used.
A tertiary growth curve was performed to test the toxicity levels of steroid specific to P. simplex. The strain was incubated under microplate reader conditions previously mentioned at a starting OD determined by the first growth curve and the highest solvent concentration corresponding to the steroid of interest with steroid at ½ serial dilutions for a total of seven concentrations tested in singlet. Testosterone, progesterone, 17β-estradiol, hydrocortisone, and aldosterone were all dissolved in ethanol while estrone was dissolved in DMSO. Three controls were included for each steroid; a positive control with the highest tolerable solvent concentration (%), a positive control with media, and a media control which allowed for normalization. Steroid exposure growth curves allowed for choosing the maximum amount of steroid concentration that P. simplex would sustain while maintaining relative viability.

[4] = QD-FRET sensor progesterone titration in HEPES 1×; type: biochemical
Procedure: as §1
Raw dose-response curves were obtained by plotting FA/FD as a function of the steroid concentration. Sensor output is the normalization of the fluorescent spectra of the donor and acceptor according to the following equation:
[formula] Where F=FA/FD, Fi is for [PRG]=i, Fmin stands for the average on 3 experiments of F for [PRG]=0 nM and Fmax stands for the average on 3 experiments of F for [PRG]=10 uM.
Non-normalized dose-response were fitted with Origin Pro 8 software with the non-linear equation:
Mathematically, the limit of detection in the signal domain (LD) is given by:LD=meanblank−3.3×σtest LD=meanblank−3.3×σtest where meanblank is the mean signal for a reagent blank and σtest is the pool standard deviation for all test samples in the dilution series, calculated as[9]:
Then the Limit of detection (LOD) is calculated using the parameters of the fit with the non-linear equation (XX) for y=LD:
as §2, §3

Chain of PinR (A0A0A1DUF2 entry or part of it): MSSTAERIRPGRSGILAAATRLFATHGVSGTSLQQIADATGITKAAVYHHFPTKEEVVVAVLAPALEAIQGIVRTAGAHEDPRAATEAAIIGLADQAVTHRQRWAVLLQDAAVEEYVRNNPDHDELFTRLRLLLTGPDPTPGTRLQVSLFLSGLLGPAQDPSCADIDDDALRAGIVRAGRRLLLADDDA

Molecule: CC(C)CCC[C@@H](C)[C@H]1CC[C@H]2[C@@H]3CC=C4C[C@@H](O)CC[C@]4(C)[C@H]3CC[C@]12C [CHL, Cholesterol]
- cross-reactivity (in words) [1]: No cross-reactivity was observed
- cross-reactivity [2]: No cross-reactivity

- highest solvent concentration that did not produce a physiological change in growth ([3]; P. simplex vs solvent-free control): 0.35 % by volume
Molecule: C[S+](C)[O-] [DMSO, dimethyl sulfoxide]

- highest solvent concentration that did not produce a physiological change in growth [3]: 0.70 % by volume
Molecule: CCO [EtOH, ethanol]

Molecule: C[C@H](O)[C@H]1CC[C@H]2[C@@H]3CC[C@@H]4C[C@H](O)CC[C@]4(C)[C@H]3CC[C@]12C [PRE, 5β-Pregnane-3α,20-α-diol]
- cross-reactivity (in words) [1]: No cross-reactivity was observed
- cross-reactivity [2]: No cross-reactivity

Molecule: C[C@H](O)[C@H]1CC[C@H]2[C@@H]3CC[C@@H]4C[C@H](O[C@@H]5O[C@H](C(=O)O)[C@@H](O)[C@H](O)[C@H]5O)CC[C@]4(C)[C@H]3CC[C@]12C [PRE-glu, 5β-Pregnane-3α,20-α-diol glucuronide]
- cross-reactivity (in words) [1]: No cross-reactivity was observed
- cross-reactivity [2]: No cross-reactivity

Molecule: DNA1: Cy5-labelled PinR binding probe 5Cy5-GCCTAACTAGCCGTTCGGCTAGTTATTC-3Cy5 (SEQ ID NO: 24) (DNA, 5' {Cy5}, 3' {Cy5}, backbone and methylation of C not given here; hybridized with complementary strand to form double-stranded fluorescent oligo)
- [Pro]min ([4]; QD/TF/DNA=1/4/18, [QD]=25 nM): 0.073 µM

Molecule: DNA2: Cy5-labelled PinR binding probe 5Cy5-GCCTAACTAGCCGATCGGCTAGTCATTC-3Cy5 (SEQ ID NO: 26) (DNA, 5' {Cy5}, 3' {Cy5}, backbone and methylation of C not given here; hybridized with complementary strand to form double-stranded fluorescent oligo)
- [Pro]min ([4]; QD/TF/DNA=1/4/18, [QD]=25 nM): 0.051 µM

Molecule: DNA3: Cy5-labelled PinR binding probe 5Cy5-GCCTAACTAGCCGTTCGGCAAGTAATTC-3Cy5 (SEQ ID NO: 28) (DNA, 5' {Cy5}, 3' {Cy5}, backbone and methylation of C not given here; hybridized with complementary strand to form double-stranded fluorescent oligo)
- [Pro]min ([4]; DNA 3, QD/TF/DNA 1/1/2): 0.040 µM
- [Pro]min ([4]; DNA 3, QD/TF/DNA 1/1/18): 0.072 µM
- [Pro]min ([4]; DNA 3, QD/TF/DNA 1/2/2): 0.053 µM
- [Pro]min ([4]; DNA 3, QD/TF/DNA 1/2/18): 0.070 µM
- [Pro]min ([4]; DNA 3, QD/TF/DNA 1/4/2): 0.050 µM
- [Pro]min ([4]; DNA 3, QD/TF/DNA 1/4/18): 0.040 µM
- [Pro]min ([4]; DNA 3, QD/TF/DNA 1/10/18): 0.065 µM
- [Pro]min ([4]; DNA 3, QD/TF/DNA 1/16/18): 0.075 µM
- [Pro]min ([4]; QD/TF/DNA=1/4/18, [QD]=25 nM): 0.040 µM

Molecule: DNA4: Cy5-labelled PinR binding probe 5Cy5-CCTTAACTAGCCGTTCTGTTAGTTATT C-3Cy5 (SEQ ID NO: 30) (DNA CCTTAACTAGCCGTTCTGTTAGTTATTC; DNA, 5' {Cy5}, 3' {Cy5}, backbone and methylation of C not given here; hybridized with complementary strand to form double-stranded fluorescent oligo)
- [Pro]min ([4]; DNA 4, QD/TF/DNA 1/1/4): 0.024 µM
- [Pro]min ([4]; DNA 4, QD/TF/DNA 1/1/18): 0.017 µM
- [Pro]min ([4]; DNA 4, QD/TF/DNA 1/4/9): 0.066 µM
- [Pro]min ([4]; DNA 4, QD/TF/DNA 1/4/18): 0.044 µM
- [Pro]min ([4]; DNA 4, QD/TF/DNA 1/16/8): 0.190 µM
- [Pro]min ([4]; QD/TF/DNA=1/4/18, [QD]=25 nM): 0.044 µM
